Tests used:
[1] = tested on: COR-L23; experiment: cells; assay type: functional, cell-based; conditions: Homo sapiens;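 note: cell viability assay measuring how strongly compounds suppress growth of COR-L23 cells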
Description: SANGER: Inhibition of human COR-L23 cell growth in a cell viability assay.

[2] = tested on: COR-L279; experiment: SANGER: Inhibition of human COR-L279 cell growth in a cell viability assay.; assay type: functional, cell-based
[3] = tested on: ChaGo-K-1; experiment: cells; assay type: functional, cell-based; conditions: Homo sapiens;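 note: growth inhibition of ChaGo-K-1 cells, read out with a cell viability assay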
Description: SANGER: Inhibition of human ChaGo-K-1 cell growth in a cell viability assay.

[4] = tested on: DU-145; experiment: cells; assay type: functional, cell-based; conditions: Homo sapiens
Description: SANGER: Inhibition of human DU-145 cell growth in a cell viability assay.

[5] = tested on: EFM-19; experiment: cells; assay type: functional, cell-based; conditions: Homo sapiens;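 note: growth inhibition of human EFM-19 cells, measured in a cell viability assay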
Description: SANGER: Inhibition of human EFM-19 cell growth in a cell viability assay.

[6] = tested on: EFO-27; experiment: cells; assay type: functional, cell-based; conditions: Homo sapiens;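 note: growth inhibition of EFO-27 cells, read out with a cell viability assay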
Description: SANGER: Inhibition of human EFO-27 cell growth in a cell viability assay.

[7] = tested on: G-401; experiment: cells; assay type: functional, cell-based; conditions: Homo sapiens
Description: SANGER: Inhibition of human G-401 cell growth in a cell viability assay.

[8] = tested on: GCT; experiment: cells; assay type: functional, cell-based; conditions: Homo sapiens;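 note: GCT cell line proliferation inhibition, read out with a cell viability assay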
Description: SANGER: Inhibition of human GCT cell growth in a cell viability assay.

[9] = tested on: GMS-10; experiment: cells; assay type: functional, cell-based; conditions: Homo sapiens;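 note: growth inhibition of GMS-10 cells, read out as cell viability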
Description: SANGER: Inhibition of human GMS-10 cell growth in a cell viability assay.

[10] = tested on: H4; experiment: cells; assay type: functional, cell-based; conditions: Homo sapiens
Description: SANGER: Inhibition of human H4 cell growth in a cell viability assay.

[11] = tested on: HCC1419; experiment: cells; assay type: functional, cell-based; conditions: Homo sapiens;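 note: growth inhibition of human HCC1419 cells, read out as cell viability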
Description: SANGER: Inhibition of human HCC1419 cell growth in a cell viability assay.

[12] = tested on: HCT-116; experiment: cells; assay type: functional, cell-based; conditions: Homo sapiens
Description: SANGER: Inhibition of human HCT-116 cell growth in a cell viability assay.

[13] = tested on: HCT-15; experiment: cells; assay type: functional, cell-based; conditions: Homo sapiens;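 note: cell viability readout, IC50 reflecting suppression of HCT-15 cell growth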
Description: SANGER: Inhibition of human HCT-15 cell growth in a cell viability assay.

[14] = tested on: HOP-92; experiment: cells; assay type: functional, cell-based; conditions: Homo sapiens;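 note: cell viability readout, with IC50 reflecting inhibition of HOP-92 cell growth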
Description: SANGER: Inhibition of human HOP-92 cell growth in a cell viability assay.

[15] = tested on: HT-3; experiment: cells; assay type: functional, cell-based; conditions: Homo sapiens;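 note: growth inhibition measured with a cell viability readout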
Description: SANGER: Inhibition of human HT-3 cell growth in a cell viability assay.

[16] = tested on: HuO-3N1; experiment: cells; assay type: functional, cell-based; conditions: Homo sapiens;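 note: cell viability readout used to measure how strongly compounds suppress proliferation of human HuO-3N1 cells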
Description: SANGER: Inhibition of human HuO-3N1 cell growth in a cell viability assay.

[17] = tested on: IMR-5; experiment: cells; assay type: functional, cell-based; conditions: Homo sapiens;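 note: growth inhibition of human IMR-5 cells, read out with a cell viability assay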
Description: SANGER: Inhibition of human IMR-5 cell growth in a cell viability assay.

[18] = tested on: KYSE-410; experiment: cells; assay type: functional, cell-based; conditions: Homo sapiens;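 note: growth inhibition of KYSE-410 cells, measured through a cell viability readout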
Description: SANGER: Inhibition of human KYSE-410 cell growth in a cell viability assay.

[19] = tested on: MDA-MB-361; experiment: cells; assay type: functional, cell-based; conditions: Homo sapiens
[20] = tested on: ME-180; experiment: cells; assay type: functional, cell-based; conditions: Homo sapiens;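 note: cell viability assay measuring growth inhibition of ME-180 cells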
Description: SANGER: Inhibition of human ME-180 cell growth in a cell viability assay.

[21] = tested on: MEL-HO; experiment: cells; assay type: functional, cell-based; conditions: Homo sapiens
Description: SANGER: Inhibition of human MEL-HO cell growth in a cell viability assay.

[22] = tested on: MHH-CALL-2; experiment: cells; assay type: functional, cell-based; conditions: Homo sapiens;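 note: growth inhibition of the cell line, read out in a cell viability assay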
Description: SANGER: Inhibition of human MHH-CALL-2 cell growth in a cell viability assay.

[23] = tested on: MKN-1; experiment: cells; assay type: functional, cell-based; conditions: Homo sapiens;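 note: growth inhibition of human MKN1 cells, read out by a cell viability measurement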
Description: SANGER: Inhibition of human MKN1 cell growth in a cell viability assay.

[24] = tested on: NB1; experiment: cells; assay type: functional, cell-based; conditions: Homo sapiens;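 note: reduction of NB1 cell proliferation, read out with a viability assay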
Description: SANGER: Inhibition of human NB1 cell growth in a cell viability assay.

[25] = tested on: NCI-H2052; experiment: cells; assay type: functional, cell-based; conditions: Homo sapiens;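 note: growth inhibition of NCI-H2052 cells, read out with a cell viability assay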
Description: SANGER: Inhibition of human NCI-H2052 cell growth in a cell viability assay.

[26] = tested on: NCI-H2081; experiment: cells; assay type: functional, cell-based; conditions: Homo sapiens;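 note: growth inhibition of human NCI-H2081 cells, read out with a cell viability assay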
Description: SANGER: Inhibition of human NCI-H2081 cell growth in a cell viability assay.

[27] = tested on: NCI-H2196; experiment: cells; assay type: functional, cell-based; conditions: Homo sapiens;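 note: cell viability assay used as the readout of growth inhibition in NCI-H2196 cells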
Description: SANGER: Inhibition of human NCI-H2196 cell growth in a cell viability assay.

[28] = tested on: NCI-H2342; experiment: cells; assay type: functional, cell-based; conditions: Homo sapiens;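 note: growth inhibition of the cancer cell line, determined with a cell viability assay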
Description: SANGER: Inhibition of human NCI-H2342 cell growth in a cell viability assay.

[29] = tested on: NCI-H28; experiment: cells; assay type: functional, cell-based; conditions: Homo sapiens;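 note: growth inhibition of human NCI-H28 cells, read out as cell viability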
Description: SANGER: Inhibition of human NCI-H28 cell growth in a cell viability assay.

[30] = tested on: NCI-H292; experiment: cells; assay type: functional, cell-based; conditions: Homo sapiens;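 note: growth inhibition of NCI-H292 cells, read out with a cell viability assay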
Description: SANGER: Inhibition of human NCI-H292 cell growth in a cell viability assay.

[31] = tested on: NCI-H524; experiment: cells; assay type: functional, cell-based; conditions: Homo sapiens;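 note: growth inhibition of human NCI-H524 cells, read out through a cell viability assay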
Description: SANGER: Inhibition of human NCI-H524 cell growth in a cell viability assay.

[32] = tested on: NCI-H716; experiment: cells; assay type: functional, cell-based; conditions: Homo sapiens;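 note: growth inhibition of human NCI-H716 cells, measured by a cell viability assay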
Description: SANGER: Inhibition of human NCI-H716 cell growth in a cell viability assay.

[33] = tested on: NCI-H810; experiment: cells; assay type: functional, cell-based; conditions: Homo sapiens;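 note: IC50 reflects inhibition of cancer cell line growth, read out with a cell viability assay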
Description: SANGER: Inhibition of human NCI-H810 cell growth in a cell viability assay.

[34] = tested on: SNU-16; experiment: cells; assay type: functional, cell-based; conditions: Homo sapiens;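 note: growth inhibition of human SNU-16 cells, determined with a cell viability readout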
Description: SANGER: Inhibition of human NCI-SNU-16 cell growth in a cell viability assay.

[35] = tested on: PANC-08-13; experiment: cells; assay type: functional, cell-based; conditions: Homo sapiens
Description: SANGER: Inhibition of human PANC-08-13 cell growth in a cell viability assay.

[36] = tested on: RO82-W-1; experiment: cells; assay type: functional, cell-based; conditions: Homo sapiens;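 note: growth inhibition of human RO82-W-1 cells, measured with a cell viability assay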
Description: SANGER: Inhibition of human RO82-W-1 cell growth in a cell viability assay.

[37] = tested on: RPMI 8402; experiment: SANGER: Inhibition of human RPMI-8402 cell growth in a cell viability assay.; assay type: functional, cell-based
[38] = tested on: RT-112; experiment: cells; assay type: functional, cell-based; conditions: Homo sapiens
Description: SANGER: Inhibition of human RT-112 cell growth in a cell viability assay.

[39] = tested on: SCC-9; experiment: cells; assay type: functional, cell-based; conditions: Homo sapiens;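 note: Read-out is a cell viability assay, with values giving inhibition of cell growth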
Description: SANGER: Inhibition of human SCC-9 cell growth in a cell viability assay.

[40] = tested on: SF-295; experiment: cells; assay type: functional, cell-based; conditions: Homo sapiens;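 note: growth inhibition of SF-295 cells, read out with a cell viability assay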
Description: SANGER: Inhibition of human SF295 cell growth in a cell viability assay.

[41] = tested on: SK-MEL-28; experiment: cells; assay type: functional, cell-based; conditions: Homo sapiens;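 note: growth inhibition of human SK-MEL-28 cells, read out with a cell viability assay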
Description: SANGER: Inhibition of human SK-MEL-28 cell growth in a cell viability assay.

[42] = tested on: SK-MEL3; experiment: cells; assay type: functional, cell-based, SK-MEL-3; conditions: Homo sapiens;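 note: growth inhibition of human SK-MEL-3 cells, read out with a cell viability assay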
Description: SANGER: Inhibition of human SK-MEL-3 cell growth in a cell viability assay.

[43] = tested on: ST486; experiment: SANGER: Inhibition of human ST486 cell growth in a cell viability assay.; assay type: functional, cell-based
[44] = tested on: SUP-T1; experiment: cells; assay type: functional, cell-based; conditions: Homo sapiens;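 note: growth inhibition of human SUP-T1 cells, read out as cell viability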
Description: SANGER: Inhibition of human SUP-T1 cell growth in a cell viability assay.

[45] = tested on: SW1088; experiment: cells; assay type: functional, cell-based; conditions: Homo sapiens;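 note: growth inhibition of human SW1088 cells, read out by a cell viability assay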
Description: SANGER: Inhibition of human SW1088 cell growth in a cell viability assay.

[46] = tested on: SW48; experiment: cells; assay type: functional, cell-based; conditions: Homo sapiens;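 note: growth inhibition of SW48 cells, read out with a cell viability assay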
Description: SANGER: Inhibition of human SW48 cell growth in a cell viability assay.

[47] = tested on: SW626; experiment: cells; assay type: functional, cell-based; conditions: Homo sapiens;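 note: growth inhibition of SW626 cells, measured with a cell viability assay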
Description: SANGER: Inhibition of human SW626 cell growth in a cell viability assay.

[48] = tested on: SW756; experiment: cells; assay type: functional, cell-based; conditions: Homo sapiens;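 note: growth inhibition of human SW756 cells, read out with a cell viability assay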
Description: SANGER: Inhibition of human SW756 cell growth in a cell viability assay.

[49] = tested on: SW780; experiment: cells; assay type: functional, cell-based; conditions: Homo sapiens;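 note: growth inhibition of the cells, read out with a cell viability assay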
Description: SANGER: Inhibition of human SW780 cell growth in a cell viability assay.

[50] = tested on: SW837; experiment: cells; assay type: functional, cell-based; conditions: Homo sapiens;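 note: growth inhibition of SW837 cells, determined with a cell viability assay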
Description: SANGER: Inhibition of human SW837 cell growth in a cell viability assay.

[51] = tested on: 8505C; experiment: cells; assay type: functional, cell-based; conditions: Homo sapiens
Description: SANGER: Inhibition of human 8505C cell growth in a cell viability assay.

[52] = tested on: A253 cell line; experiment: cells; assay type: functional, cell-based; conditions: Homo sapiens;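 note: growth inhibition of A253 cells, read out with a cell viability assay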
Description: SANGER: Inhibition of human A253 cell growth in a cell viability assay.

[53] = tested on: BC1 cell line; experiment: SANGER: Inhibition of human BC-1 cell growth in a cell viability assay.; assay type: functional, cell-based
[54] = tested on: BPH-1; experiment: cells; assay type: functional, cell-based; conditions: Homo sapiens;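 note: cell viability assay measuring growth inhibition of human BPH-1 cells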
Description: SANGER: Inhibition of human BPH-1 cell growth in a cell viability assay.

[55] = tested on: CA46; experiment: cells; assay type: functional, cell-based; conditions: Homo sapiens;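 note: growth inhibition of human CA46 cells, read out by a cell viability assay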
Description: SANGER: Inhibition of human CA46 cell growth in a cell viability assay.

[56] = tested on: CAL-148; experiment: cells; assay type: functional, cell-based; conditions: Homo sapiens
Description: SANGER: Inhibition of human CAL-148 cell growth in a cell viability assay.

[57] = tested on: CAL-27; experiment: cells; assay type: functional, cell-based; conditions: Homo sapiens;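 note: Viability-based readout, IC50 reflecting inhibition of CAL-27 cell growth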
Description: SANGER: Inhibition of human CAL-27 cell growth in a cell viability assay.

[58] = tested on: TE-441-T; experiment: cells; assay type: functional, cell-based; conditions: Homo sapiens
Description: SANGER: Inhibition of human TE-441-T cell growth in a cell viability assay.

[59] = tested on: U2OS; experiment: cells; assay type: functional, cell-based, U-2-OS; conditions: Homo sapiens;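 note: growth inhibition of human U-2-OS cells, determined with a cell viability assay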
Description: SANGER: Inhibition of human U-2-OS cell growth in a cell viability assay.

[60] = tested on: UACC-62; experiment: cells; assay type: functional, cell-based; conditions: Homo sapiens;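 note: growth inhibition of human UACC-62 cells, read out by a cell viability assay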
Description: SANGER: Inhibition of human UACC-62 cell growth in a cell viability assay.

[61] = tested on: UMUC3; experiment: cells; assay type: functional, cell-based; conditions: Homo sapiens;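 note: growth inhibition of human UM-UC-3 cells, read out with a cell viability assay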
Description: SANGER: Inhibition of human UM-UC-3 cell growth in a cell viability assay.

[62] = tested on: YKG-1; experiment: cells; assay type: functional, cell-based; conditions: Homo sapiens;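 note: cell growth inhibition, read out with a viability assay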
Description: SANGER: Inhibition of human YKG-1 cell growth in a cell viability assay.

[63] = tested on: CESS; experiment: SANGER: Inhibition of human CESS cell growth in a cell viability assay.; assay type: functional, cell-based
[64] = tested on: CHP-126; experiment: cells; assay type: functional, cell-based; conditions: Homo sapiens
Description: SANGER: Inhibition of human CHP-126 cell growth in a cell viability assay.

CC(C)=CC[C@@H](O)C1=CC(=O)c2c(O)ccc(O)c2C1=O [SHIKONIN]
IC50 [1]: 0.301 µM
IC50 [2]: > 16 µM
IC50 [3]: 0.657 µM
IC50 [4]: 0.193 µM
IC50 [5]: 0.212 µM
IC50 [6]: 0.33 µM
IC50 [7]: 0.235 µM
IC50 [8]: 1.15 µM
IC50 [9]: 11.5 µM
IC50 [10]: 0.284 µM
IC50 [11]: 1.69 µM
IC50 [12]: 0.386 µM
IC50 [13]: 0.268 µM
IC50 [14]: 2.01 µM
IC50 [15]: 0.948 µM
IC50 [16]: 4.43 µM
IC50 [17]: 0.589 µM
IC50 [18]: 0.752 µM
IC50 [19]: 1.73 µM
IC50 [20]: 0.279 µM
IC50 [21]: 0.149 µM
IC50 [22]: 0.715 µM
IC50 [23]: 0.236 µM
IC50 [24]: 1.03 µM
IC50 [25]: 0.0611 µM
IC50 [26]: 1.52 µM
IC50 [27]: 0.654 µM
IC50 [28]: 0.134 µM
IC50 [29]: 1.01 µM
IC50 [30]: 0.853 µM
IC50 [31]: > 16 µM
IC50 [32]: > 16 µM
IC50 [33]: 0.503 µM
IC50 [34]: > 16 µM
IC50 [35]: 10.4 µM
IC50 [36]: 2.84 µM
IC50 [37]: 1.5 µM
IC50 [38]: 0.0704 µM
IC50 [39]: 0.197 µM
IC50 [40]: 0.664 µM
IC50 [41]: > 16 µM
IC50 [42]: 2.64 µM
IC50 [43]: < 0.0625 µM
IC50 [44]: 1.82 µM
IC50 [45]: 0.7 µM
IC50 [46]: 1.26 µM
IC50 [47]: 0.635 µM
IC50 [48]: 0.762 µM
IC50 [49]: 0.406 µM
IC50 [50]: > 16 µM
IC50 [51]: 3.1 µM
IC50 [52]: < 0.0625 µM
IC50 [53]: 2.68 µM
IC50 [54]: 1.26 µM
IC50 [55]: 0.192 µM
IC50 [56]: 0.677 µM
IC50 [57]: > 16 µM
IC50 [58]: < 0.0625 µM
IC50 [59]: > 16 µM
IC50 [60]: 1.23 µM
IC50 [61]: 0.967 µM
IC50 [62]: 0.229 µM
IC50 [63]: 0.776 µM
IC50 [64]: 0.695 µM

C/C=C(/C)C(=O)O[C@H]1C(C)=C2[C@H]([C@@H]1OC(=O)CCCCCCC)[C@@](C)(OC(C)=O)C[C@H](OC(=O)CCC)[C@@]1(O)[C@H]2OC(=O)[C@@]1(C)O [THAPSIGARGIN]
IC50 [1]: 0.000749 µM
IC50 [2]: 0.0363 µM
IC50 [3]: 0.00329 µM
IC50 [4]: 0.00863 µM
IC50 [5]: > 0.512 µM
IC50 [6]: 0.0254 µM
IC50 [7]: 0.0251 µM
IC50 [8]: 0.0053 µM
IC50 [9]: > 0.512 µM
IC50 [10]: 0.00198 µM
IC50 [11]: > 0.512 µM
IC50 [12]: 0.000943 µM
IC50 [13]: 0.155 µM
IC50 [14]: 0.00526 µM
IC50 [15]: 0.0217 µM
IC50 [16]: 0.0432 µM
IC50 [17]: 0.0156 µM
IC50 [18]: < 0.002 µM
IC50 [19]: 0.00473 µM
IC50 [20]: > 0.512 µM
IC50 [21]: 0.0019 µM
IC50 [22]: 0.468 µM
IC50 [23]: 0.0474 µM
IC50 [24]: 0.0271 µM
IC50 [25]: 0.0064 µM
IC50 [26]: > 0.512 µM
IC50 [27]: > 0.512 µM
IC50 [28]: < 0.002 µM
IC50 [29]: > 0.512 µM
IC50 [30]: 0.0149 µM
IC50 [31]: 0.07 µM
IC50 [32]: > 0.512 µM
IC50 [33]: 0.00714 µM
IC50 [34]: 0.189 µM
IC50 [35]: 0.0238 µM
IC50 [36]: > 0.512 µM
IC50 [37]: 0.00523 µM
IC50 [38]: 0.00422 µM
IC50 [39]: 0.447 µM
IC50 [40]: < 0.002 µM
IC50 [41]: > 0.512 µM
IC50 [42]: 0.00651 µM
IC50 [43]: 0.00177 µM
IC50 [44]: 0.0547 µM
IC50 [45]: 0.324 µM
IC50 [46]: 0.00167 µM
IC50 [47]: 0.0177 µM
IC50 [48]: 0.0127 µM
IC50 [49]: > 0.512 µM
IC50 [50]: 0.00166 µM
IC50 [51]: < 0.002 µM
IC50 [52]: 0.00173 µM
IC50 [53]: 0.0232 µM
IC50 [54]: 0.0006 µM
IC50 [55]: 0.00298 µM
IC50 [56]: > 0.512 µM
IC50 [57]: < 0.002 µM
IC50 [58]: 0.0488 µM
IC50 [59]: 0.0447 µM
IC50 [60]: 0.0664 µM
IC50 [61]: 0.00121 µM
IC50 [62]: 0.00772 µM
IC50 [63]: 0.0354 µM
IC50 [64]: 0.0298 µM
